Reference: patent US20260256753A1, “USE OF AN OREXIN 2 RECEPTOR AGONIST FOR IMPROVING RESPIRATORY FUNCTION DURING SLEEP” (TAKEDA PHARMACEUTICAL COMPANY LIMITED, priority 2023, published 2026)

Experiments:
Type in all cases: cell-based
[1] = test system: neurons in the pre-Bötzinger complex; test: Electrophysiologic recording of neurons in the pre-Bötzinger complex in rat medullary slices; settings: whole cell patch clamp, versus vehicle (0.1% DMSO) control, FIG. 1
From the text: (§1) Neonatal rats (postnatal day 1-10) were decapitated and the neuraxis was isolated in a chamber filled with oxygenated artificial cerebrospinal fluid solution (ACSF, in mM: NaCl 125, KCl 2.5, MgCl2 1, CaCl2 2, NaHCO3 25, NaH2PO4 1.25, glucose 25, pH 7.4). The cerebellum was removed, and the brainstem was mounted in the vibratome (VT 1000S; Leica, Milan, Italy) chamber filled with oxygenated gluconate cutting solution (in mM: Kgluconate 130, KCl 15, EGTA 0.2, HEPES 20, glucose 25, kynurenic acid 2, pH 7.4). Transverse medullary slices containing the pre-Bötzinger complex and hypoglossal nucleus were cut (400-600 μm thick). The slices were transferred at room temperature for 1 min in an oxygenated mannitol cutting solution (in mM: D-mannitol 225, glucose 25, KCl 2.5, NaH2PO4 1.25, NaHCO3 26, CaCl2 0.8, MgCl2 8, kynurenic acid 2, pH 7.4). Slices were then transferred in ACSF solution at 30° C. for 30 min and at room temperature for 30 min. At least 30 min prior to the start of recording, each slice was transferred in the recording solution in which the concentration of K+ was raised to 9 mM and that of Mg2+ was decreased to 0.5 mM to ensure the production of long-term and stable rhythm. […] Signals were acquired using Clampex 10.6 software (Axon, Molecular Devices, CA, USA) at a sampling rate of 10-20 kHz and filtered at 2-10 kHz using an 8-pole Bessel filter built within the software and analyzed using Clampfit 10.6 software (pClamp 10.6; Axon, Molecular Devices). […] Bursts were then automatically detected, and burst frequency was measured.
(§2) To evaluate the effects of vehicle (0.1% DMSO) on neuronal activities, after 5 min of stabilization, the neuronal activities under basal condition was recorded for 2-12 min, followed by recording in the presence of vehicle (0.1% DMSO) for 30 min. […]

[2] = test system: phrenic motoneurons; test: Electrophysiologic recording of phrenic motoneurons in rat isolated brainstem-spinal cord preparations; settings: C3-5 ventral root, versus vehicle control, FIG. 2
Protocol: Neonatal (postnatal day 1-4) rats were decapitated, and the brainstem-spinal cord was dissected in a bath containing ACSF. The cerebellum and pons were ablated. At least 30 min prior to the start of recording, the tissue was transferred in the recording solution in which the concentration of K+ was raised to 5 mM and that of Mg2+ was decreased to 0.5 mM to ensure production of long-term and stable rhythm (modified ACSF, in mM: NaCl 125, MgCl2 0.5, KCl 5, CaCl2 1, NaHCO3 25, NaH2PO4 1.25, glucose 30, pH 7.4). The tissues were glued on coverslips and transferred to a recording chamber and continuously perfused at 27±2° C. with mACSF at a flow rate of 2.3±0.2 mL/min. Activity of phrenic motoneurons was measured in electrophysiological recordings from C3-5 ventral root, outputs of phrenic motoneurons (J. J. Greer, J. C. Smith, J. L. Feldman, Respiratory and locomotor patterns generated in the fetal rat brain stem-spinal cord in vitro, J Neurophysiol 67 (4) (1992) 996-9; J. C. Smith, J. J. Greer, G. S. Liu, J. L. Feldman, Neural mechanisms generating respiratory pattern in mammalian brain stem-spinal cord in vitro. I. Spatiotemporal patterns of motor and medullary neuron activity, J Neurophysiol 64 (4) (1990) 1149-69), using a glass suction electrode. […] The rectification and integration was used for quantification of the activities of phrenic motoneurons because the spontaneous bursts detected in voltage signals are consisting of multiple positive and negative voltages from baseline (T. Sugita, et al.). […] Bursts were then automatically detected, and burst frequency was measured.
To evaluate the effects of vehicle (0.1% DMSO) on neuronal activities, after 5 min of stabilization, the neuronal activities under basal condition were recorded for 2-20 min, followed by recording with vehicle (0.1% DMSO) for 30-40 min. […] As vehicle (0.1% DMSO) had no significant effects on burst frequency of phrenic neurons, potential of drugs was assessed under vehicle (0.1% DMSO). […]

[3] = test system: hypoglossal motoneurons; test: Electrophysiologic recording of hypoglossal motoneurons in rat medullary slices; settings: whole cell patch clamp, versus vehicle control, FIG. 3
From the text: as §1, §2

COC(=O)N1CCC[C@H](NS(C)(=O)=O)[C@@H]1CO[C@H]1CC[C@@H](c2ccccc2)CC1 (relative stereo) [Compound A, methyl(2R,3S)-3-((methylsulfonyl)amino)-2-(((cis-4-phenylcyclohexyl)oxy)methyl) piperidine-1-carboxylate]
increased burst frequency: burst frequency in neurons in the pre-Bötzinger complex [1] | burst frequency of phrenic motoneurons [2] | burst frequency of hypoglossal motoneurons [3]

CC(C)(O)C(=O)N1CC(F)(F)[C@H](NS(C)(=O)=O)[C@@H]1Cc1cccc(-c2cc(F)cc(F)c2)c1F [Compound C, N-{(2S,3R)-4,4-difluoro-1-(2-hydroxy-2-methylpropanoyl)-2-[(2,3′,5′-trifluoro[1,1′-biphenyl]-3-yl)methyl]pyrrolidin-3-yl}methanesulfonamide]
increased burst frequency: burst frequency in neurons in the pre-Bötzinger complex [1] | burst frequency of phrenic motoneurons [2] | burst frequency of hypoglossal motoneurons [3]
